These are literature values, as cited in KR20140130881A, “보리코나졸을 함유하는 안정한 주사용 조성물” (동아에스티 주식회사, priority 2013, dated 2014).

≈ marks a conversion by molar mass, not a printed value.

Turning to `C[C@@H](c1ncncc1F)[C@](O)(Cn1cncn1)c1ccc(F)cc1F` [보리코나졸, (2R,3S)-2-(2,4-다이플루오로페닐)-3-(5-플루오로피리미딘-4-일)-1-(1H-1,2,4-트리아졸-1-일)부탄-2-올], for the setting “pH 3, acidic solution”, the aqueous solubility (in general, how much of the substance goes into solution per volume) is 200 µg/mL (≈ 573 µM). Further, the solubility in water (water) is 700 µg/mL (≈ 2000 µM).
